Here are results for one compound from patent US8846111B2, “Compositions and methods for establishing and/or maintaining pregnancy” (Alltech, Inc., priority 2007, dated 2014).

In this experiment the test system is gene encoding relaxin. As to the kind of experiment: AFFYMETRIX chicken genome array, oviduct RNA of hens fed selenium: relaxin. Conditions: 0.3 ppm selenium in diet, over forty weeks, relative to selenium deficient animals. The experiment is classed as in vivo. The text has this:
In an effort to examine possible benefits of administration of selenium on female reproductive performance, hens were randomly selected from a broiler-breeder flock housed at Coldstream poultry facility, University of Kentucky. The hens were maintained on a selenium-deficient diet from 6 weeks of age until 22 weeks of age and were then placed on the following dietary treatments for over forty weeks until the time of sampling: 1) Control, selenium-deficient, Torula yeast-based diet (0.02 ppm selenium); 2) The control diet supplemented with 0.3 ppm selenium from sodium selenite; and 3) The control diet supplemented with 0.3 ppm selenium from SEL-PLEX. Hens were taken from each of the three experimental groups, their oviducts removed, flash-frozen and stored at −80° C. prior to RNA isolation.
Labeled RNA preparations from oviduct were hybridized with AFFYMETRIX chicken genome arrays containing 38,000 probe sets using standard methodology.

Structures are written as SMILES.

As for `O=[Se](O)O` [sodium selenite], the “relaxin gene expression, upregulation” value is listed as “no significant effect”.
